What is called IC50 is the concentration that gives 50% inhibition. A lower IC50 goes with inhibition by little substance. For orientation: inhibition means the drop in the measured response relative to a control, in per cent. One may read the solubility (kinetic) as solubility judged after dilution from a stock solution rather than from solid.

SMILES strings stand for the structures. In brackets after ≈: the same amount, converted by molar mass. Activity calls are given as the source filed them. The rule behind the calls is not given here. Bounds are passed on as bounds.

The nature of data set [1]: Inhibition of NF-kappaB activation transfected in PMA-stimulated HEK293 cells after 16 hrs by luciferase reporter gene assay. The class given is cell-based. Particulars: HEK293, 16 h. In general terms: Reporter assays use an easily measured gene product as a stand-in for the process of interest.
The nature of data set [2]: Drug level in mouse blood at 50 mg/kg, ip after 0.5 hrs by LC/MS analysis. More on the design: dose 50 mg/kg, route intraperitoneal. In kind it is ADME, organism-based. Particulars: whole blood, read-out: Drug uptake.
The nature of data set [3]: Drug level in mouse blood at 10 mg/kg, ip after 3 hrs by LC/MS analysis. The class given is ADME, organism-based. More on the design: dose 10 mg/kg, route intraperitoneal. Particulars: whole blood, read-out: Drug uptake.
Data set [4] is described as follows: Drug level in mouse blood at 30 mg/kg, ip after 0.5 hrs by LC/MS analysis. The class given is ADME, organism-based. Particulars: whole blood, read-out: Drug uptake. The arrangement: dose 30 mg/kg, route intraperitoneal.
Data set [5] in a line: Metabolic stability in human liver microsomes assessed as compound remaining at 1 uM after 1 hr by LC/MS/MS analysis. In kind it is ADME, Microsome. Particulars: read-out: Stability. (Liver microsomes are vesicles of endoplasmic reticulum, rich in cytochrome P450 enzymes.)
Data set [6] can be described thus: Metabolic stability in mouse liver microsomes assessed as compound remaining at 10 uM after 1 hr by LC/MS/MS analysis. In kind it is ADME, Microsome. Particulars: read-out: Stability.
Data set [7] is described as follows: Permeability at 50 uM at pH 6.2 by PAMPA. In kind it is ADME. Particulars: pH 6.2, 50 µM. In general terms: PAMPA measures passive passage across an artificial lipid membrane.
The target of data set [8] is Protein kinase C beta type (Homo sapiens) (UniProt P05771). As to the kind of experiment: Inhibition of PKCbeta up to 8 uM.
Sequence of Protein kinase C beta type (Homo sapiens) (P05771 2-671 limits assumed): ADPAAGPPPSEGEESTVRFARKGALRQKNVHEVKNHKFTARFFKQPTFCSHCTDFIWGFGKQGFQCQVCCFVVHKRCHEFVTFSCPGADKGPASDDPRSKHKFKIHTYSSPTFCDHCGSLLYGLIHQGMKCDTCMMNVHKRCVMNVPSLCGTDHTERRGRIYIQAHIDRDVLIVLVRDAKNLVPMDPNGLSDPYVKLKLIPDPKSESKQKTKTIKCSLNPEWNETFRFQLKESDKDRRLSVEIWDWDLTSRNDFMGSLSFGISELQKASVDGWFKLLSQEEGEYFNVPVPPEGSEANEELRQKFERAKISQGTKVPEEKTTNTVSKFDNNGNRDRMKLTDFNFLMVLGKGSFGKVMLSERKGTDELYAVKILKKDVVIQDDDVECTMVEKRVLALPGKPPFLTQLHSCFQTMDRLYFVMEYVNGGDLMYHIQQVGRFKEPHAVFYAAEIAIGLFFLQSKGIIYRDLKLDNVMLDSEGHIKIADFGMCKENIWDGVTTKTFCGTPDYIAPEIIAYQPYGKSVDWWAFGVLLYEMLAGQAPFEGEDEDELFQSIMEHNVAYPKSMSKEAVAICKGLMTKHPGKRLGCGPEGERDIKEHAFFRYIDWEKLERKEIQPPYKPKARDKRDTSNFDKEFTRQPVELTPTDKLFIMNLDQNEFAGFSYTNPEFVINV
Data set [9] in a line: Metabolic stability in mouse liver microsomes assessed as compound remaining at 1 uM after 1 hr by LC/MS/MS analysis. In kind it is ADME, Microsome. Particulars: read-out: Stability.
A short description of data set [10]: Drug level in mouse blood at 30 mg/kg, ip after 3 hrs by LC/MS analysis. The class given is ADME, organism-based. More on the design: dose 30 mg/kg, route intraperitoneal. To be noted: whole blood, read-out: Drug uptake.
Data set [11] can be described thus: Cytotoxicity against human HEK293 cells after 24 hrs by ATP-lite 1-step assay. The class given is cell-based. To be noted: read-out: LD50.
Data set [12] is described as follows: Permeability at 50 uM at pH 7.4 by PAMPA. In kind it is ADME. To be noted: pH 7.4, 50 µM.
The nature of data set [13]: Drug level in mouse blood at 10 mg/kg, ip after 0.5 hrs by LC/MS analysis. In kind it is ADME, organism-based. More on the design: dose 10 mg/kg, route intraperitoneal. Particulars: whole blood, read-out: Drug uptake.
Data set [14] addresses RAF proto-oncogene serine/threonine-protein kinase (Homo sapiens) (UniProt P04049). The data set is described as follows: Inhibition of raf kinase at 10 uM.
For data set [15], the target named is T1, Inhibitor of nuclear factor kappa-B kinase subunit beta (Homo sapiens) (UniProt O14920).
T1 sequence (whole entry): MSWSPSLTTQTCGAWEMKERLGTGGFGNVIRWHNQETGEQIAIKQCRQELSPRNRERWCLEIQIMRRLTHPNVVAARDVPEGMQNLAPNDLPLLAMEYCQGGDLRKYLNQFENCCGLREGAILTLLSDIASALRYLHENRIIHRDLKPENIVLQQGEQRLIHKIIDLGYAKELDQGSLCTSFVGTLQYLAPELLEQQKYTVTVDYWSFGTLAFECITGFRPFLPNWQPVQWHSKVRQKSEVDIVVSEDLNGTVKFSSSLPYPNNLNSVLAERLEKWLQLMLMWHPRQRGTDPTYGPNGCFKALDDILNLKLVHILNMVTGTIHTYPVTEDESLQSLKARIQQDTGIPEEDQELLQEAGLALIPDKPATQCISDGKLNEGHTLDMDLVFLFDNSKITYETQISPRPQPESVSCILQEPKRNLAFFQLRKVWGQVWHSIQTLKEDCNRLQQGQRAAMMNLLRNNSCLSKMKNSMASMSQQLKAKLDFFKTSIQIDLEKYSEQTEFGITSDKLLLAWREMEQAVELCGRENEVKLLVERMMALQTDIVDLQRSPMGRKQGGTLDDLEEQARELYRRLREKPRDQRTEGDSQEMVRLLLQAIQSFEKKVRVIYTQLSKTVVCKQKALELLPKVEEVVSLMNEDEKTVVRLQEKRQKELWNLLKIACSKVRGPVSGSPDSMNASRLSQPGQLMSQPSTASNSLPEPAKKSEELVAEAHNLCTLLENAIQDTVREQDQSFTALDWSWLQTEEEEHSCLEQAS
As to the kind of experiment: Inhibition of IKK-beta up to 8 uM.

Data set [16] deals with Tyrosine-protein kinase JAK2 (Homo sapiens) (UniProt O60674). As to the kind of experiment: Inhibition of JAK2 at 10 uM.
Sequence of Tyrosine-protein kinase JAK2 (Homo sapiens) (O60674 whole entry): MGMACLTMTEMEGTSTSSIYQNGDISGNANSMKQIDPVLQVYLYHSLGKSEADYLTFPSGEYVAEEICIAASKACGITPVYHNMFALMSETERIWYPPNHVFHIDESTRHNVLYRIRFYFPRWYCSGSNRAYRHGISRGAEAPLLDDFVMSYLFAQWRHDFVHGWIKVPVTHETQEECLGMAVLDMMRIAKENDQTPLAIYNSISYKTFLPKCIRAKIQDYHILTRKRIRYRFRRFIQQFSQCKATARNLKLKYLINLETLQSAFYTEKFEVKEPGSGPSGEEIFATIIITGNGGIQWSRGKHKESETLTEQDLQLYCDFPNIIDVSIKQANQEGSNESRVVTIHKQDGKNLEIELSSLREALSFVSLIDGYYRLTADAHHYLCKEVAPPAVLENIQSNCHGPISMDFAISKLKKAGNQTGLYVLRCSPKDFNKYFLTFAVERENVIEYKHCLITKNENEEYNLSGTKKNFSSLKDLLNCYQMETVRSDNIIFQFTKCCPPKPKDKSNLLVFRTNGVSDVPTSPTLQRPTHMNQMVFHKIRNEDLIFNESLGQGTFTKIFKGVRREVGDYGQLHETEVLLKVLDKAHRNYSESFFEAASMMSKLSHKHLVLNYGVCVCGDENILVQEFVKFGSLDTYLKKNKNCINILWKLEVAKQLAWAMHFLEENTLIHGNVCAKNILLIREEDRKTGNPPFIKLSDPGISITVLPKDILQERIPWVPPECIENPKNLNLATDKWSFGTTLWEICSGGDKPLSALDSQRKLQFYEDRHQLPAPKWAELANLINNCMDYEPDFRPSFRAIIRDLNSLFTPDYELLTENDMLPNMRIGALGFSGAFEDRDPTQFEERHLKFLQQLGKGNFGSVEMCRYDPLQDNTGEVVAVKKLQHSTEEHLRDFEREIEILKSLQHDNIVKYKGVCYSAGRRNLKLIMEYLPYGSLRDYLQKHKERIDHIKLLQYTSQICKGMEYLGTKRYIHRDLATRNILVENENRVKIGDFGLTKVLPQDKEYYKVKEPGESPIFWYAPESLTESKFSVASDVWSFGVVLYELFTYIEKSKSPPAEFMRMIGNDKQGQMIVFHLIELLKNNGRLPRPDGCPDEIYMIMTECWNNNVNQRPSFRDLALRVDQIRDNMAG
Data set [17] is described as follows: Metabolic stability in human liver microsomes assessed as compound remaining at 10 uM after 1 hr by LC/MS/MS analysis. The class given is ADME, Microsome. To be noted: read-out: Stability.
The nature of data set [18]: Aqueous solubility at pH 7.4 after 18 hrs by UV kinetic solubility method. The class given is physicochemical. To be noted: aqueous medium.
The nature of data set [19]: Permeability at 50 uM at pH 5 by PAMPA. The class given is ADME. To be noted: pH 5, 50 µM.
Data set [20] in a line: Aqueous solubility at pH 6.2 after 18 hrs by UV kinetic solubility method. In kind it is physicochemical. To be noted: aqueous medium.
Data set [21] in a line: Drug level in mouse blood at 50 mg/kg, ip after 3 hrs by LC/MS analysis. More on the design: dose 50 mg/kg, route intraperitoneal. In kind it is ADME, organism-based. To be noted: whole blood, read-out: Drug uptake.
The target in data set [22] is Protein kinase C theta type (Homo sapiens) (UniProt Q04759). As to the kind of experiment: Inhibition of PKCtheta up to 8 uM.
Sequence of Protein kinase C theta type (Homo sapiens) (Q04759 whole entry, looked up): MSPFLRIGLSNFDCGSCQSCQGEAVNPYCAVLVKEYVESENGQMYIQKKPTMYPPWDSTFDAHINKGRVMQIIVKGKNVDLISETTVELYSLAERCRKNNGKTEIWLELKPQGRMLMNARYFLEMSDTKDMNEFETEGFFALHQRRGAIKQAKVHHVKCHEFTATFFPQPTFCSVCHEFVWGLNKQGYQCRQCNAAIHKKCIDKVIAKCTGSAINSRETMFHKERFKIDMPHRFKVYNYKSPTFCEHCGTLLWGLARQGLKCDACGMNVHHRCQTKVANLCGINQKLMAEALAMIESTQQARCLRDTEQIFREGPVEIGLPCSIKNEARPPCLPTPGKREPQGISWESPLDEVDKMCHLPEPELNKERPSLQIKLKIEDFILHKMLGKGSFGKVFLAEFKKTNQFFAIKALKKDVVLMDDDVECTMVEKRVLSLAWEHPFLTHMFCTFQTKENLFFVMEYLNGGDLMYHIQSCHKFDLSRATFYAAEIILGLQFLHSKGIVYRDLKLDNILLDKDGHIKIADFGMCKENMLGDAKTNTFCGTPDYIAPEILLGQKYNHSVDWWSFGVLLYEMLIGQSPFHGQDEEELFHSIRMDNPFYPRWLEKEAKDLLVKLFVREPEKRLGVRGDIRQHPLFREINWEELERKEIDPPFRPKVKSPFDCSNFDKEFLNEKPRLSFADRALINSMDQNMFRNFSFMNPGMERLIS
Data set [23] in a line: Aqueous solubility at pH 5 after 18 hrs by UV kinetic solubility method. In kind it is physicochemical. Particulars: aqueous medium.
Data set [24] has as its system HEK293. As to the kind of experiment: Inhibition of NF-kappaB activation transfected in TNF-alpha-stimulated HEK293 cells after 16 hrs by luciferase reporter gene assay. The class given is cell-based.
Data set [25] can be described thus: Cytotoxicity against human Fa2N-4 cells after 24 hrs by ATP-lite 1-step assay. The class given is cell-based. To be noted: read-out: LD50.
For data set [26], the target named is T2, Serine/threonine-protein kinase tousled-like 1 (Homo sapiens) (UniProt Q9UKI8).
T2 sequence (whole entry): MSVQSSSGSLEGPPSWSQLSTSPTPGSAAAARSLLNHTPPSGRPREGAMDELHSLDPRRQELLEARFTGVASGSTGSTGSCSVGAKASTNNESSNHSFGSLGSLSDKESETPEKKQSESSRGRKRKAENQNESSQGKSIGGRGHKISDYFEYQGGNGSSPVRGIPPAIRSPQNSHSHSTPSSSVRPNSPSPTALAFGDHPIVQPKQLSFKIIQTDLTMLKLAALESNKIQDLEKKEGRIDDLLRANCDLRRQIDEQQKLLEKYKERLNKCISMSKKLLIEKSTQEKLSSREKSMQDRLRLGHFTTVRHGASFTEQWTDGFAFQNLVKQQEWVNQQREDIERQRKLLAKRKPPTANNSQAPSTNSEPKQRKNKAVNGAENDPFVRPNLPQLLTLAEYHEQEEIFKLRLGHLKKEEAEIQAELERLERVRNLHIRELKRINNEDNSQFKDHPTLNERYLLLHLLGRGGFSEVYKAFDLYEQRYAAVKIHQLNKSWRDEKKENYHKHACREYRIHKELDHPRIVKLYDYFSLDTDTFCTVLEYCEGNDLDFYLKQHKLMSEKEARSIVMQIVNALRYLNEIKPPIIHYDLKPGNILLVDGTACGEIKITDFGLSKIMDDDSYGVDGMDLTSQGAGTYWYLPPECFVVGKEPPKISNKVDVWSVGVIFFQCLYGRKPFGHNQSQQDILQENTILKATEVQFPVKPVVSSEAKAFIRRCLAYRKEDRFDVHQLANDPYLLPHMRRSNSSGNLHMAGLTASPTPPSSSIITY
As to the kind of experiment: Inhibition of TLK1 at 10 uM.

Sequence of RAF proto-oncogene serine/threonine-protein kinase (Homo sapiens) (P04049 whole entry): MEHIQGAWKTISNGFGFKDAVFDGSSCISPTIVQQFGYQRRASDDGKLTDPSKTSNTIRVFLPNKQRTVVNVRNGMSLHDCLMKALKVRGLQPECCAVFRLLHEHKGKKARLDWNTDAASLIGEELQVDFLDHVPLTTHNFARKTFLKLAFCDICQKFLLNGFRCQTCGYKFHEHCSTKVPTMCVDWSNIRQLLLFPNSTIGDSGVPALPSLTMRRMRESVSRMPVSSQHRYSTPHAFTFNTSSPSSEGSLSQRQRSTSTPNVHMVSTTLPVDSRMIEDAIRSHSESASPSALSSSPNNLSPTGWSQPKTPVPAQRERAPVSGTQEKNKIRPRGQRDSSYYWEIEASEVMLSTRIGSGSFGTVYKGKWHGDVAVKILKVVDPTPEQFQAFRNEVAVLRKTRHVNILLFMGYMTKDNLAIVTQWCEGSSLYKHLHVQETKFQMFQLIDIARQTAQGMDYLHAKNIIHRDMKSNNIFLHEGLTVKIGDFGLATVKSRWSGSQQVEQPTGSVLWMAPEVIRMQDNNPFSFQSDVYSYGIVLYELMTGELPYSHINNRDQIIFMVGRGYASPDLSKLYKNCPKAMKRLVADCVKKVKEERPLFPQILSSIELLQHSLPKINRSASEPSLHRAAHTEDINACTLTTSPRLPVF

For `CC(C)(C)c1cc(C(=O)Cn2c(NCCCO)nc3ccc(-c4ccccc4)cc32)cc(C(C)(C)C)c1O`, it took 900 nM to reach half-maximal inhibition in data set [1] (IC50).
Same read-out and setting: then `CC(C)(C)c1cc(C(=O)Cn2c(NCCCO)nc3cc(-c4ccccc4)ccc32)cc(C(C)(C)C)c1O`, with 600 nM; and `CC(C)(C)c1cc(C(=O)Cn2c(NCCCO)nc3ccc(Br)cc32)cc(C(C)(C)C)c1O`, with 6000 nM.
The same measure, in the same setting: the figure for `CCCCNc1nc2cc(C)c(C)cc2n1CC(=O)c1cc(C(C)(C)C)c(O)c(C(C)(C)C)c1` is 800 nM.
Same read-out and setting: then `CC(C)(C)c1cc(C(=O)Cn2c(NCCCO)nc3cc(C(=O)c4ccccc4)ccc32)cc(C(C)(C)C)c1O`, with 1800 nM; and `Cc1cc2nc(N3CCC(O)CC3)n(CC(=O)c3cc(C(C)(C)C)c(O)c(C(C)(C)C)c3)c2cc1C`, with 13000 nM.
On to `Cc1cc2nc(NCCCO)n(CC(=O)c3cc(C(C)(C)C)c(O)c(C(C)(C)C)c3)c2cc1C`, for which the concentration at 0.5 h in data set [2] turned out to be 5.93 µM; in data set [4], 8.28 µM; in [13], 1.81 µM. Besides, the concentration at 3 h in data set [3] is 0.5 µM; in data set [10], 3.64 µM; in data set [21], 6.96 µM. In addition, the remaining at 1 h, 1 µM in data set [5] was found to be 26%; in data set [9] it was 0.5%. The values for the remaining at 1 h, 10 µM in data set [6] and in data set [17] were 19% and 55%, respectively. In addition, the permeability is on record as 710 ×10⁻⁶ cm/s in [7], 441 ×10⁻⁶ cm/s in data set [12] and 299 ×10⁻⁶ cm/s in [19]. Moreover, the inhibition entry in [8], in data set [15], in [22] and in data set [24] was “inactive” in each case. For the same compound, the CC50 at 24 h is 40000 nM in [11] and 47000 nM in [25]. In addition, the inhibition came out at 57% in data set [14], 53% in data set [16] and 70% in data set [26]. For the same compound, the kinetic solubility at 18 h in [18] was found to be 0.7 µg/mL (≈ 1.5 µM); in [20] it was 0.5 µg/mL (≈ 1.07 µM); in data set [23] it was 42 µg/mL (≈ 90.2 µM).
Compound `Cc1cc2nc(NCCCO)n(CC(=O)c3cccc(OC(C)(C)C)c3)c2cc1C` came in with an IC50 in data set [1] of 16000 nM.
The same measure, in the same setting: then `Cc1cc2nc(NC3CCC(O)CC3)n(CC(=O)c3cc(C(C)(C)C)c(O)c(C(C)(C)C)c3)c2cc1C` (configuration not stated), with 100 nM.
Still for that read-out and setting: the figure for `CC(C)(C)c1cc(C(=O)Cn2c(NCCCO)nc3cc([N+](=O)[O-])ccc32)cc(C(C)(C)C)c1O` is 2000 nM; for `CC(C)(C)c1cc(C(=O)Cn2c(NCCCO)nc3ccc(N)cc32)cc(C(C)(C)C)c1O` it is 400 nM.
Same read-out and setting: then `CNc1nc2cc(C)c(C)cc2n1CC(=O)c1cc(C(C)(C)C)c(O)c(C(C)(C)C)c1`, with 300 nM; and `CC(C)(C)c1cc(C(=O)Cn2c(NCCCO)nc3cc(Br)ccc32)cc(C(C)(C)C)c1O`, with 3000 nM.
Regarding `COCCCNc1nc2cc(C)c(C)cc2n1CC(=O)c1cc(C(C)(C)C)c(O)c(C(C)(C)C)c1`, it took 300 nM to reach half-maximal inhibition in data set [1] (IC50).
Same read-out and setting: then `CC(C)(C)c1cc(C(=O)Cn2c(NCCCO)nc3ccc([N+](=O)[O-])cc32)cc(C(C)(C)C)c1O`, with more than 8000 nM; and `Cc1cc2nc(NCCCO)n(CC(=O)c3cc(C(C)(C)C)cc(C(C)(C)C)c3)c2cc1C`, with 100 nM.
In turn, `Cc1cc2nc(NCCCO)n(CC(=O)c3cccc(C(C)(C)C)c3)c2cc1C` came in with an IC50 in data set [1] of 11000 nM.
On to `CC(C)(C)c1cc(C(=O)Cn2c(NCCCO)nc3cc(N)ccc32)cc(C(C)(C)C)c1O`, for which the concentration for half-maximal inhibition (IC50) in [1] came out at 800 nM.

(Values after ChEMBL document CHEMBL1177698, “Inhibition of protein kinase C-driven nuclear factor-kappaB activation: synthesis, structure-activity relationship, and pharmacological profiling of pathway specific benzimidazole probe molecules” (J Med Chem, 2010).)
